Test results taken from patent US11427548B2 (Arvinas Operations, Inc., priority 2015, dated 2022).
Where two headings read alike, the source gives them in different places.

Assays:
Androgen Receptor [1] = target: T1, Androgen Receptor (Homo sapiens, UniProt P10275+P40337, T878A); assay: Androgen Receptor ELISA assay (PathScan AR ELISA) in LNCaP cells: AR degradation, Dmax and DC50; assay type: cell-based; conditions: for DC50: concentration that caused 50% Androgen Receptor degradation; for Dmax: highest percentage of Androgen Receptor degradation observed
T1 construct: Compounds have been evaluated in this assay in LNCaP and/or VCaP cells utilizing similar protocols; endogenous in cells; host or cells: LNCaP cells
T1 sequence (P10275 whole entry T878A): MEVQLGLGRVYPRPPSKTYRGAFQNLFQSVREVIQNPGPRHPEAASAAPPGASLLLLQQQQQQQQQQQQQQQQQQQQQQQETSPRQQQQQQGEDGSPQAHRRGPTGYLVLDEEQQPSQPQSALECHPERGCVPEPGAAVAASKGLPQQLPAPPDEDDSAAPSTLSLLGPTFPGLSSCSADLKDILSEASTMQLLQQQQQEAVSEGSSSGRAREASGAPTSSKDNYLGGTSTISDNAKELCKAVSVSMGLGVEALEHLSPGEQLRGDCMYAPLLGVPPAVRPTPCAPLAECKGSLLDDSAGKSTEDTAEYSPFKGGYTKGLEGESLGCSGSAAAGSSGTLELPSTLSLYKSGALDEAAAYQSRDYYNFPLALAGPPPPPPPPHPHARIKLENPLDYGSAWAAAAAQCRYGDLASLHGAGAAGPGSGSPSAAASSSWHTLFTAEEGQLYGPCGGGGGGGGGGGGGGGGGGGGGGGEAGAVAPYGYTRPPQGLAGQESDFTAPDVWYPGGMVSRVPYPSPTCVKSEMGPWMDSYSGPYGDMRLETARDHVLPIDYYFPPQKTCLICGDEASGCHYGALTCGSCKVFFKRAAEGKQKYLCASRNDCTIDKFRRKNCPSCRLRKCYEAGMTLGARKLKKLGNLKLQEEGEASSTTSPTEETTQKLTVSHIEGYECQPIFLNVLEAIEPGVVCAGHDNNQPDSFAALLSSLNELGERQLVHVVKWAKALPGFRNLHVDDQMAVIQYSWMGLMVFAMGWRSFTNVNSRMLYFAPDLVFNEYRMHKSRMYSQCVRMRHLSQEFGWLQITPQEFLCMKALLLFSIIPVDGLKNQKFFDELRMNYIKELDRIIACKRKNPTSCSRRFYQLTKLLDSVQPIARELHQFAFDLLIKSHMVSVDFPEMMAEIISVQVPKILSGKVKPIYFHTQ
T1 sequence (P40337 whole entry): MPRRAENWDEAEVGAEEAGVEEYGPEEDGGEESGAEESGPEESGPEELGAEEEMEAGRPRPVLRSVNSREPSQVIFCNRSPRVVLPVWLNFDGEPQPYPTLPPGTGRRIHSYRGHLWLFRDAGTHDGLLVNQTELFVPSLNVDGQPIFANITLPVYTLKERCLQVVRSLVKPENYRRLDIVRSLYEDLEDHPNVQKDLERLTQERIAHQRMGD
T1 sequence (Q15369 whole entry partner): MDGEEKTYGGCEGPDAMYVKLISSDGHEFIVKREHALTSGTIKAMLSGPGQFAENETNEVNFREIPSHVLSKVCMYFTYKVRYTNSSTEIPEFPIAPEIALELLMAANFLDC
T1 sequence (Q15370 whole entry partner): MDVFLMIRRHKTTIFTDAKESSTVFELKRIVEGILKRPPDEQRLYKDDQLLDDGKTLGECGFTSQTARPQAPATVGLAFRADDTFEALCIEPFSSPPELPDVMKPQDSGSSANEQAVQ

Androgen Receptor [2] = target: T2, Androgen Receptor (Homo sapiens, UniProt P10275); assay: Androgen Receptor ELISA assay (PathScan AR ELISA) in VCaP cells: AR degradation, Dmax and DC50; assay type: cell-based; conditions: for DC50: read-out: VCaP DC50; for Dmax: VCaP, read-out: VCaP Dmax (%)
T2 construct: endogenous in cells; host or cells: VCaP cells
T2 sequence (P10275 1-920): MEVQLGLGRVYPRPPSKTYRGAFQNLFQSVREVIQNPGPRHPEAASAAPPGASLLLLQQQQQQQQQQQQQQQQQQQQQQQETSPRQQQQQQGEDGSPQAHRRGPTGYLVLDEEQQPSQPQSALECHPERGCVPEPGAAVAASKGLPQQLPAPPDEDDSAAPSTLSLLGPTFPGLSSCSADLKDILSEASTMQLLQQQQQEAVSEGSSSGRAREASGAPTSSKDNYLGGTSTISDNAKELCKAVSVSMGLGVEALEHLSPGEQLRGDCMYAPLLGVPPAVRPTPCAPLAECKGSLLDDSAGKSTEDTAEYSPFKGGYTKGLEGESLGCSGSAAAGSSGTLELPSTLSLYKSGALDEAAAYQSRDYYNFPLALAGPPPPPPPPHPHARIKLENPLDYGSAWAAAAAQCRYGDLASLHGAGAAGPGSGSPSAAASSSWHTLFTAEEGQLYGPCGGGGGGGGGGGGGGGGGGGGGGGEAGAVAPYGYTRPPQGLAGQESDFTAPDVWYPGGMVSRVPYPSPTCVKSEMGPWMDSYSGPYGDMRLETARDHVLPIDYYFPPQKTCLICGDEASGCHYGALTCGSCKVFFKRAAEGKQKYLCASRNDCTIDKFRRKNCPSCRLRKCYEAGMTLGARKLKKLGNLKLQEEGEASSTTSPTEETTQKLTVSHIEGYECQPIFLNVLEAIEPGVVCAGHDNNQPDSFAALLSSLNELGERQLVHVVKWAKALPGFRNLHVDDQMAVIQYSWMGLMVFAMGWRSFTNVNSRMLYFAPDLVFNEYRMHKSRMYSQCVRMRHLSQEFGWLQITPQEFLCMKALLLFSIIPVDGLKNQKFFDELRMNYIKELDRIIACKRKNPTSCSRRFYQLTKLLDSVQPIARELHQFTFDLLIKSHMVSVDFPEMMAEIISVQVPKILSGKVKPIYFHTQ
In short: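 VCaP cells in phenol red-free RPMI with 5% charcoal-stripped FBS were grown at least 3 days, then given compound as 7 half-log doses in 0.1% DMSO with 0.1 nM R1881 for 24 h. Lysates went into a sandwich AR ELISA with TMB read at 450 nm.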

DC50 (Androgen Receptor [2]; VCaP cells, Table 36)	Dmax (Androgen Receptor [2]; VCaP cells, Table 36)	SMILES	DC50 (Androgen Receptor [1])	Dmax (Androgen Receptor [1])	Dmax (Androgen Receptor [2])
< 50 nM	> 71%	Cc1ncsc1-c1ccc([C@H](C)NC(=O)[C@@H]2C[C@@H](OC(=O)CCC(=O)O)CN2C(=O)[C@@H](NC(=O)COCCN2CCN(c3ccc(C(=O)N[C@H]4C(C)(C)[C@H](Oc5ccc(C#N)c(Cl)c5)C4(C)C)cn3)CC2)C(C)(C)C)cc1 [Example 862, 4-(((3R,5S)-1-((S)-2-(2-(2-(4-(5-(((1r,3r)-3-(3-chloro-4-cyanophenoxy)-2,2,4,4-tetramethylcyclobutyl)carbamoyl)pyridin-2-yl)piperazin-1-yl)ethoxy)acetamido)-3,3-dimethylbutanoyl)-5-(((S)-1-(4-(4-methylthiazol-5-yl)phenyl)ethyl)carbamoyl)pyrrolidin-3-yl)oxy)-4-oxobutanoic acid]	–	–	–
< 50 nM	< 25%	C/C(=N\OCCN1CCN(CC(=O)N[C@H](C(=O)N2C[C@H](O)C[C@H]2C(=O)N[C@@H](C)c2ccc(-c3scnc3C)cc2)C(C)(C)C)CC1)c1cc(C(=O)N[C@@H](C)Cn2ccc(-c3ccc(C#N)c(Cl)c3)n2)n[nH]1 [Example 864, N-((S)-1-(3-(3-Chloro-4-cyanophenyl)-1H-pyrazol-1-yl)propan-2-yl)-5-((E)-1-((2-(4-(2-(((S)-1-((2S,4R)-4-hydroxy-2-(((S)-1-(4-(4-methylthiazol-5-yl)phenyl)ethyl)carbamoyl)pyrrolidin-1-yl)-3,3-dimethyl-1-oxobutan-2-yl)amino)-2-oxoethyl)piperazin-1-yl)ethoxy)imino)ethyl)-1H-pyrazole-3-carboxamide]	–	–	–

The next lines start with the compound.

SMILES	DC50 (Androgen Receptor [2]; VCaP cells, Table 36)	Dmax (Androgen Receptor [2]; VCaP cells, Table 36)	DC50 (Androgen Receptor [1])	Dmax (Androgen Receptor [1])	Dmax (Androgen Receptor [2])
Cc1ncsc1-c1ccc(CNC(=O)[C@@H]2C[C@@H](O)CN2C(=O)[C@@H](NC(=O)COCCCOCCCCCOc2ccc(N3C(=S)N(c4ccc(C#N)c(C(F)(F)F)c4)C(=O)C3(C)C)cc2F)C(C)(C)C)cc1 [Example 3, (2S,4R)-1-[(2S)-2-[2-(3-{[5-(4-{3-[4-cyano-3-(trifluoromethyl)phenyl]-5,5-dimethyl-4-oxo-2-sulfanylideneimidazolidin-1-yl}-2-fluorophenoxy)pentyl]oxy}propoxy)acetamido]-3,3-dimethylbutanoyl]-4-hydroxy-N-{[4-(4-methyl-1,3-thiazol-5-yl)phenyl]methyl}pyrrolidine-2-carboxamide]	–	–	< 50 nM	> 71%	–
Cc1ncsc1-c1ccc(CNC(=O)[C@@H]2C[C@@H](O)CN2C(=O)[C@@H](NC(=O)COCCCOCCCCCOc2ccc(N3C(=S)N(c4ccc([N+](=O)[O-])c(C(F)(F)F)c4)C(=O)C3(C)C)cc2)C(C)(C)C)cc1 [Example 5, (2S,4R)-1-[(2S)-2-[2-(3-{[5-(4-{5,5-dimethyl-3-[4-nitro-3-(trifluoromethyl)phenyl]-4-oxo-2-sulfanylideneimidazolidin-1-yl}phenoxy)pentyl]oxy}propoxy)acetamido]-3,3-dimethylbutanoyl]-4-hydroxy-N-{[4-(4-methyl-1,3-thiazol-5-yl)phenyl]methyl}pyrrolidine-2-carboxamide]	–	–	51 to 500 nM	> 71%	–
Cc1ncsc1-c1ccc([C@H](C)NC(=O)[C@@H]2C[C@@H](O)CN2C(=O)[C@@H](NC(=O)CN[C@H]2C[C@@H](N3CCN(c4ccc(C(=O)N[C@H]5C(C)(C)[C@H](Oc6ccc(C#N)c(Cl)c6)C5(C)C)cn4)CC3)C2)C(C)(C)C)cc1 [Example 861, N-((1r,3R)-3-(3-chloro-4-cyanophenoxy)-2,2,4,4-tetramethylcyclobutyl)-6-(4-((1R,3S)-3-((2-(((S)-1-((2S,4R)-4-hydroxy-2-(((S)-1-(4-(4-methylthiazol-5-yl)phenyl)ethyl)carbamoyl)pyrrolidin-1-yl)-3,3-dimethyl-1-oxobutan-2-yl)amino)-2-oxoethyl)amino)cyclobutyl)piperazin-1-yl)nicotinamide]	< 50 nM	–	–	–	51 to 70%
[2H]C(Nc1ccc(C(=O)N[C@H]2C(C)(C)[C@H](Oc3ccc(C#N)c(Cl)c3)C2(C)C)cc1)C([2H])([2H])C([2H])([2H])C([2H])([2H])C([2H])([2H])OCC(=O)N[C@H](C(=O)N1C[C@H](O)C[C@H]1C(=O)N[C@@H](C)c1ccc(-c2scnc2C)cc1)C(C)(C)C (stereo partly drawn) [Example 863]	< 50 nM	> 71%	–	–	–
